In US7067528B2, “1, 2-dihydro-2-oxo-1, 8-naphthyridine derivative” (Sumitomo Pharmaceuticals Co., Ltd., priority 2001, dated 2006):
Counter-ions that a name gives are not always drawn.

Experiment: Stability Test: storage at 60° C., 75% R.H., residual amount of the compound by HPLC
Format: physicochemical
Method: The crystals of N-[1-butyl-4-[3-[3-(hydroxy)propoxy]-phenyl]-1,2-dihydro-2-oxo-1,8-naphthyridin-3-yl]-N′-(2,6-diisopropyl-4-aminophenyl)urea hydrochloride monohydrate obtained in Example 1 and amorphous N-[1-butyl-4-[3-[3-(hydroxy)propoxy]phenyl]-1,2-dihydro-2-oxo-1,8-naphthyridin-3-yl]-N′-(2,6-diisopropyl-4-aminophenyl)urea hydrochloride were stored at a temperature of 60° C. under a relative humidity (R.H.) of 75% for 4 weeks. Then, the residual amount of the compound therein was quantitatively analyzed using High Performance Liquid Chromatography (HPLC).

HPLC Area Percentage (%) (Initial value, before storage at 60° C. / 75% R.H.)	HPLC Area Percentage (%) (storage period 2 weeks at 60° C., relative humidity 75%)	HPLC Area Percentage (%) (storage period 4 weeks at 60° C., relative humidity 75%)	stability compared with the amorphous hydrochloride (60° C., 75% R.H., 4 weeks, conclusion in words from Table 2)	Structure (SMILES)
97.7%	94.6%	92.7%	–	CCCCn1c(=O)c(NC(=O)Nc2c(C(C)C)cc(N)cc2C(C)C)c(-c2cccc(OCCCO)c2)c2cccnc21.Cl [Amorphous, N-[1-butyl-4-[3-[3-(hydroxy)propoxy]phenyl]-1,2-dihydro-2-oxo-1,8-naphthyridin-3-yl]-N′-(2,6-diisopropyl-4-aminophenyl)urea hydrochloride]
–	–	–	quite excellent in stability	CCCCn1c(=O)c(NC(=O)Nc2c(C(C)C)cc(N)cc2C(C)C)c(-c2cccc(OCCCO)c2)c2cccnc21 [Example 1, N-[1-butyl-4-[3-[3-(hydroxy)propoxy]phenyl]-1,2-dihydro-2-oxo-1,8-naphthyridin-3-yl]-N′-(2,6-diisopropyl-4-amino-phenyl)urea hydrochloride monohydrate]
